How the values were obtained:
[1] = Caco-2 permeability assay; details: human
From the text: The endpoint measured is the intestinal permeability expressed as apparent permeability—Papp value. All permeability values are represented as ×10^−6 cm/sec.

human hepatocytes = assay: Human hepatocyte stability
[2] = Solid state stability (purity by UPLC); type: physicochemical
Experimental: Compounds 100, 101 and 102 were kept in glass vials at three different locations at temperatures of […], 2-8° C. and −20° C. in order to assess solid state stability at room temperature, refrigerated conditions and in a deep freezer. The compounds from these vials were assessed for purity by UPLC at three different timepoints 0 hrs, 24 hrs and 48 hrs. Table 2 depicts the results obtained for solid state stability at 25° C., 2-8° C. and −20° C. respectively. Purity measurements were made at 0 hrs, 24 hours and 48 hours.

[3] = Stability in solutions (pH range, simulated gastric fluid, simulated intestinal fluid); type: physicochemical
Experimental: 1 mg/ml solutions of compound 100 were prepared in each buffer, diluted to 0.1 mg/ml in methanol at each time point and analyzed as follows: Gemini C-18, 250×4.6 mm, 5 im, Mobile Phase: Methanol Isocratic Flow Rate: 0.4 mL/min.

Human Plasma Protein = assay: in vitro; details: human, plasma
Method in brief: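 Compound spiked at 10 μM final into human plasma, dialysed against PBS by RED for 5 h at 37° C with shaking, in duplicate. Both chambers quantified by LC-MS/MS after acetonitrile precipitation; % unbound = 100×buffer/plasma concentration, recovery checked against T0 sample.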

Work on `O=C(OC[C@H]1OC(O)[C@H](O)[C@@H]1O)c1ccccn1` (some centres unmarked) [Compound 102, (3,4,5-trihydroxytetrahydrofuran-2-yl) methyl picolinate] yielded a Papp A→B [1] of 0.9 ×10⁻⁶ cm/s, a Papp B→A [1] of 0.8 ×10⁻⁶ cm/s and an efflux ratio [1] of 1. The recovery ([1]; Caco-2, % Recovery A to B) was 94.9%, the recovery ([1]; Caco-2, % Recovery B to A) was 90.7% and the “clearance in human hepatocytes (in words)” value (human hepatocytes) was “medium clearance”. The “Solid State Stability (% Purity)” value ([2]; 2-8° C., 0 hr) was 95.28%, the “Solid State Stability (% Purity)” value ([2]; 2-8° C., 24 hr) was 95.18% and the “Solid State Stability (% Purity)” value ([2]; 2-8° C., 48 hr) was 95.45%. For the same compound, the “Solid State Stability (% Purity)” value ([2]; 25° C., 0 hr) was 95.60%, the “Solid State Stability (% Purity)” value ([2]; 25° C., 24 hr) was 95.55% and the “Solid State Stability (% Purity)” value ([2]; 25° C., 48 hr) was 95.23%. The “Solid State Stability (% Purity)” value ([2]; −20° C., 0 hr) was 95.26%, the “Solid State Stability (% Purity)” value ([2]; −20° C., 24 hr) was 95.27% and the “Solid State Stability (% Purity)” value ([2]; −20° C., 48 hr) was 95.28%. The “% remaining” value ([3]; SGF (simulated gastric fluid), 0 h) was 95.54%, the “% remaining” value ([3]; SGF (simulated gastric fluid), 1 week) was 91.04% and the “% remaining” value ([3]; SGF (simulated gastric fluid), 1 h) was 94.73%. For the same compound, the “% remaining” value ([3]; SGF (simulated gastric fluid), 2 h) was 93.68%, the “% remaining” value ([3]; SGF (simulated gastric fluid), 4 h) was 93.65% and the “% remaining” value ([3]; SGF (simulated gastric fluid), 8 h) was 93.69%. For the same compound, the “% remaining” value ([3]; SGF (simulated gastric fluid), 24 h) was 93.61%, the “% remaining” value ([3]; SGF (simulated gastric fluid), 48 h) was 93.58% and the “% remaining” value ([3]; SIF (simulated intestinal fluid), 0 h) was 96.45%. For the same compound, the “% remaining” value ([3]; SIF (simulated intestinal fluid), 1 week) was 84.49%, the “% remaining” value ([3]; SIF (simulated intestinal fluid), 1 h) was 96.01% and the “% remaining” value ([3]; SIF (simulated intestinal fluid), 2 h) was 96.02%. For the same compound, the “% remaining” value ([3]; SIF (simulated intestinal fluid), 4 h) was 95.96%, the “% remaining” value ([3]; SIF (simulated intestinal fluid), 8 h) was 95.77% and the “% remaining” value ([3]; SIF (simulated intestinal fluid), 24 h) was 94.28%. The “% remaining” value ([3]; SIF (simulated intestinal fluid), 48 h) was 93.75%, the “% remaining” value ([3]; pH 1, 0 h) was 95.73% and the “% remaining” value ([3]; pH 1, 1 week) was 95.56%. For the same compound, the “% remaining” value ([3]; pH 1, 1 h) was 95.69%, the “% remaining” value ([3]; pH 1, 2 h) was 95.64% and the “% remaining” value ([3]; pH 1, 4 h) was 95.61%. For the same compound, the “% remaining” value ([3]; pH 1, 8 h) was 95.64%, the “% remaining” value ([3]; pH 1, 24 h) was 95.61% and the “% remaining” value ([3]; pH 1, 48 h) was 95.64%. For the same compound, the “% remaining” value ([3]; pH 2, 0 h) was 95.67%, the “% remaining” value ([3]; pH 2, 1 week) was 95.39% and the “% remaining” value ([3]; pH 2, 1 h) was 95.65%. For the same compound, the “% remaining” value ([3]; pH 2, 2 h) was 95.66%, the “% remaining” value ([3]; pH 2, 4 h) was 95.64% and the “% remaining” value ([3]; pH 2, 8 h) was 95.67%. For the same compound, the “% remaining” value ([3]; pH 2, 24 h) was 95.56%, the “% remaining” value ([3]; pH 2, 48 h) was 95.54% and the “% remaining” value ([3]; pH 4, 0 h) was 95.37%. The “% remaining” value ([3]; pH 4, 1 week) was 94.76%, the “% remaining” value ([3]; pH 4, 1 h) was 95.32% and the “% remaining” value ([3]; pH 4, 2 h) was 95.27%. For the same compound, the “% remaining” value ([3]; pH 4, 4 h) was 95.25%, the “% remaining” value ([3]; pH 4, 8 h) was 95.26% and the “% remaining” value ([3]; pH 4, 24 h) was 95.26%. The “% remaining” value ([3]; pH 4, 48 h) was 95.05%, the “% remaining” value ([3]; pH 6, 0 h) was 96.31% and the “% remaining” value ([3]; pH 6, 1 week) was 94.47%. The “% remaining” value ([3]; pH 6, 1 h) was 96.32%, the “% remaining” value ([3]; pH 6, 2 h) was 96.26% and the “% remaining” value ([3]; pH 6, 4 h) was 96.27%. For the same compound, the “% remaining” value ([3]; pH 6, 8 h) was 96.25%, the “% remaining” value ([3]; pH 6, 24 h) was 95.73% and the “% remaining” value ([3]; pH 6, 48 h) was 95.66%. The “% remaining” value ([3]; pH 7.4, 0 h) was 95.8%, the “% remaining” value ([3]; pH 7.4, 1 week) was 61.5% and the “% remaining” value ([3]; pH 7.4, 1 h) was 95.7%. For the same compound, the “% remaining” value ([3]; pH 7.4, 2 h) was 94.95%, the “% remaining” value ([3]; pH 7.4, 4 h) was 94.34% and the “% remaining” value ([3]; pH 7.4, 8 h) was 93.43%. The “% remaining” value ([3]; pH 7.4, 24 h) was 90.13%, the “% remaining” value ([3]; pH 7.4, 48 h) was 83.6% and the “% remaining” value ([3]; pH 9, 0 h) was 94.05%. For the same compound, the “% remaining” value ([3]; pH 9, 1 week) was 0%, the “% remaining” value ([3]; pH 9, 1 h) was 74.72% and the “% remaining” value ([3]; pH 9, 2 h) was 56.28%. The “% remaining” value ([3]; pH 9, 4 h) was 49.14%, the “% remaining” value ([3]; pH 9, 8 h) was 23.34% and the “% remaining” value ([3]; pH 9, 24 h) was 14.94%. For the same compound, the “% remaining” value ([3]; pH 9, 48 h) was 0.63% and the “protein binding (footnote, in words)” value (Human Plasma Protein) was “Compounds 100 and 102 were not detected indicating no protein binding as shown in Table 12, above”.

— patent US12168673B2 (Mitopower, Inc., priority 2022, dated 2024)
